Entries after “also recorded” stand apart in the source; their conditions may differ.
What was measured:
[1] = system: leukemia cells; clone harboring an activating KRAS mutation; experiment: Leukemia cells in culture exposed to increasing concentrations of standard ALL chemotherapy drugs, bulk sequencing of clones; type: cell-based, human; details: for sensitivity of the clone harboring an activating KRAS mutation: pediatric ALL sample in culture, bulk sequencing (FIG. 7)
From the text: Single-cell exome sequencing of individual leukemia cells harboring an ETV6-RUNX1 translocation has been performed, measuring approximately 200 coding mutations per cell, only 25 of which have been present in enough cells to be detected with standard bulk sequencing in that patient. The mutation load per cell has then been incorporated with other known features of this type of leukemia, such as the replication-associated mutation rate (1 coding mutation/300 cell divisions), the time from initiation to diagnosis (4.2 years), and the population size at the time of diagnosis (100 billion cells) to create an in silico simulation of the development of the disease. It has been unexpectedly discovered that even in what has been thought to be a genetically simple cancer such as pediatric ALL, there are an estimated 330 million clones with distinct coding mutation profiles at the time of diagnosis in that patient. […] Accordingly, methods are provided for enhancing the sensitivity of detection so that clones that make up at least 0.01% (1:10,000) of the cells (box B) can be detected, as this is the stratum in which most resistant disease that causes relapse is hypothesized to reside.
Given such a massive population genetic diversity, it has been hypothesized that there are clones that are more resistant to treatment within a given patient. To test that hypothesis, the sample is placed in culture and the leukemia cells are exposed to increasing concentrations of standard ALL chemotherapy drugs. […] This approach also employed bulk sequencing of the treated samples. The use of single-cell DNA sequencing in some instances allows a determination of the diversity and clonotypes of the expanding populations.

mice = details: limited sequencing of target genes; cited from earlier work
[2] = system: Umbilical cord blood cells that express the stem/progenitor marker CD34; experiment: Direct measurement of environmental mutagenicity (DMEM): exposed single cells, PTA and single-cell sequencing; type: cell-based, human; details: for enrichment of variants in DNase I hypersensitive (DH) sites: ENU-exposed CD34+ cells vs Roadmap Epigenomics DH sites (FIG. 12D, 12E)
From the text: PTA was used to conduct a novel mutagenicity assay that provides a framework for performing high-resolution, genome wide human toxicogenomics studies. Previous studies such as the Ames test, relies on bacterial genetics to make measurements that are assumed to be representative of human cells while only providing limited information on the mutation number and patterns induced in each exposed cell. To overcome these limitations, a human mutagenesis system “direct measurement of environmental mutagenicity (DMEM)” was developed, wherein single human cells was exposed to an environmental compound, isolated as single cells, and subjected to single-cell sequencing to identify the new mutations induced in each cell.
Umbilical cord blood cells that express the stem/progenitor marker CD34 were exposed to increasing concentrations of the direct mutagen N-ethyl-N-nitrosourea (ENU).
ENU (CAS 759-73-9) and D-mannitol (CAS 69-65-8) were put into solution at their maximal solubility. Fresh anticoagulant-treated umbilical cord blood (CB) was obtained from St. Louis Cord Blood Bank. CB was diluted 1:2 with PBS and mononuclear cells (MNCs) were isolated by density gradient centrifugation on Ficoll-Paque Plus according to manufacturer's instructions. CB MNCs expressing CD34 were then immunomagnetically selected using the human CD34 microbead kit and magnetic cell sorting (MACS) system as per the manufacturer. Cell count and viability were assessed using the Luna FL cell counter. CB CD34+ cells were seeded at a density of 2.5×10^4 cells/mL in StemSpan SFEM supplemented with 1×CD34+ Expansion supplement, 100 units/mL of penicillin, and 100 ug/mL of streptomycin where they expanded for 96 hours before proceeding to mutagen exposure.
Expanded cord blood CD34+ cells were cultured in StemSpan SFEM supplemented with 1×CD34+ Expansion Supplement, 100 units/mL of penicillin, and 100 ug/mL of streptomycin. The cells were exposed to ENU at concentrations of 8.54, 85.4, and 854 uM, D-mannitol at 1152.8, and 11528 uM, or 0.9% sodium chloride (vehicle control) for 40 hours. Single-cell suspensions from drug-treated cells and vehicle control samples were harvested and stained for viability as described above. Single cell sorts were carried out as described above. PTA was performed and libraries were prepared using a simplified and improved protocol as per the general methods of the methods described herein, and Example 2.
Data acquired from cells in the DMEM experiments were trimmed using Trimmomatic, aligned to GRCh38 using BWA, and further processed using GATK 4.0.1 best practices without deviation from the recommended parameters. Genotyping was performed using HaplotypeCaller where joint genotypes were again filtered using standard parameters. […] The trinucleotide context of each SNV was determined by extracting the surrounding bases from the reference genome using bedtools. Mutation counts and context were visualized using ggplot2 and heatmap2 in R.
To determine whether mutations were enriched in DNase I hypersensitivity sites (DHS) in CD34+ cells, the proportion of SNVs in each sample that overlap with DHS sites from 10 CD34+ primary cell datasets produced by the Roadmap Epigenomics Project were calculated. DHS sites were extended by 2 nucleosomes, or 340 bases in either direction. Each DHS dataset was paired with a single cell sample where we determined the proportion of the human genome with at least 10× coverage in that cell which overlapped with a DHS, which was compared to the proportion of SNVs that were found within the covered DHS sites.

Molecule: C[C@]12C=CC(=O)C=C1CC[C@@H]1[C@@H]2[C@@H](O)C[C@@]2(C)[C@H]1CC[C@]2(O)C(=O)CO [prednisolone]
- sensitivity of the clone harboring an activating KRAS mutation [1]: more sensitive; also recorded: killed

Molecule: CCN(N=O)C(N)=O [ENU, N-ethyl-N-nitrosourea]
- preference of base changes (mice): preference for T to A (A to T), T to C (A to G), and C to T (G to A) changes
- mutation number of each cell ([2]; ENU 8.54, 85.4 and 854 uM, 40 hours, cord blood CD34+ cells (FIG. 12A)): dose-dependent increase in mutation number of each cell
- type of base changes induced ([2]; ENU-exposed CD34+ cells (FIG. 12B)): the most common mutations are T to A (A to T), T to C (A to G), and C to T (G to A); also recorded: C to G (G to C) transversion appears to be rare
- trinucleotide context of the SNVs ([2]; ENU-exposed CD34+ cells (FIG. 12C)): cytosine mutagenesis appears to be rare when cytosine is followed by guanine; also recorded: most thymine variants occur where adenine is present before thymine
- genomic feature annotation of the variants relative to the genome ([2]; ENU-exposed CD34+ cells (FIG. 12F)): not significantly different; also recorded: No specific enrichment was seen in specific annotations
- enrichment of variants in DNase I hypersensitive (DH) sites [2]: no enrichment of cytosine variants in DNase I hypersensitivity sites was observed; also recorded: No significant enrichment in variant locations at DH sites was identified
- enrichment of variants in DNase I hypersensitive (DH) sites ([2]; listed as N-ethyl-N-nitrosourea): No significant enrichment of cytosine variants was observed

Molecule: asparaginase
- behaviour of the clone harboring an activating KRAS mutation ([1]; lowest dose of asparaginase, pediatric ALL sample in culture (FIG. 7)): continued to expand

Molecule: COc1cccc2c1C(=O)c1c(O)c3c(c(O)c1C2=O)C[C@@](O)(C(C)=O)C[C@@H]3O[C@H]1C[C@H](N)[C@H](O)[C@H](C)O1 [daunorubicin]
- sensitivity of the clone harboring an activating KRAS mutation [1]: more sensitive; also recorded: killed

— US11905553B2, “Method for nucleic acid amplification” (ST. JUDE CHILDREN'S RESEARCH HOSPITAL, INC., priority 2018, dated 2024)
